The record followed here is patent US9884065B2, “Inhibiting activity of senescent cells using a glucocorticoid” (Buck Institute for Research on Aging, priority 2011, dated 2018).

The target in test [1] is T1, mineralocorticoid receptor (Homo sapiens, UniProt P08235).
T1 sequence (P08235 1-984): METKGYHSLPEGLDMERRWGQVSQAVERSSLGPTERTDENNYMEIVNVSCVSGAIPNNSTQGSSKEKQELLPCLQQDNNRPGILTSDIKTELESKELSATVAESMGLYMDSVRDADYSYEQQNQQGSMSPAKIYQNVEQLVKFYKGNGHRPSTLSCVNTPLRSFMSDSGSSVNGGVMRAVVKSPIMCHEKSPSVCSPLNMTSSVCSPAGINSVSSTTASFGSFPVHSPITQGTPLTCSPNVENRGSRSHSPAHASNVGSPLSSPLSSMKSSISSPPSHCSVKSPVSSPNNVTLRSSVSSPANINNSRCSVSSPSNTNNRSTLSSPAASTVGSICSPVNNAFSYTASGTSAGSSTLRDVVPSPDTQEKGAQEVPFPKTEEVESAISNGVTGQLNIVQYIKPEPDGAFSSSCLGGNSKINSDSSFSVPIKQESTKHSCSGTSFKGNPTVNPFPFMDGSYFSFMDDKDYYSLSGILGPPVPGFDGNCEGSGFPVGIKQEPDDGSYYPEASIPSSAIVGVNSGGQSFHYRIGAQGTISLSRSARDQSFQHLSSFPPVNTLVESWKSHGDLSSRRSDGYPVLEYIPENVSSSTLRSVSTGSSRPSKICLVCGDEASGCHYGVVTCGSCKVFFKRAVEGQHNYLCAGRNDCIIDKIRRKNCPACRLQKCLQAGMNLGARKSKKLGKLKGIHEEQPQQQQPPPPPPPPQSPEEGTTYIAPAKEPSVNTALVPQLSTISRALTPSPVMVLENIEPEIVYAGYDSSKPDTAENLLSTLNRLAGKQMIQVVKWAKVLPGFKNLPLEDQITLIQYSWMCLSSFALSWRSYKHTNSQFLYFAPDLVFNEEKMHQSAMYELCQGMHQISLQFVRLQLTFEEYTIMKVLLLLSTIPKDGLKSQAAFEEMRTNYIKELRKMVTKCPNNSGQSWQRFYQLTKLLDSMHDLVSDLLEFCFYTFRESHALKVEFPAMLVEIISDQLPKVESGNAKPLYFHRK
Briefly: Immunostaining for mineralocorticoid receptor localization in HCA2 cells. As to conditions: 500 nM corticosterone or 100 nM cortisol, 1 or 7 days.

Another test concerns SASP. The experiment in a line: Antibody arrays of conditioned media (120 cytokines and growth factors, SASP). As to conditions: 500 nM corticosterone or 100 nM cortisol. Type of test: cell-based, human. The procedure:
Cultures were washed and incubated in serum-free DMEM for 24 hours and the conditioned media were diluted to equivalent cell numbers using DMEM. Antibody arrays from Raybiotech (AAH-CYT-G1000-8) were used according to the manufacturer's instructions. Arrays were scanned using a GenePix 4200A Professional microarray scanner. Signal intensities were quantitated using LI-COR Odyssey software and normalized to positive controls for each sample, which were then normalized across all samples, as previously described (Freund et al., 2011, EMBO J. 30:1536-1548).
To determine whether or not, or to what extent corticosterone or cortisol suppressed the entire SASP, antibody arrays were used to interrogate the relative secretion of 120 cytokines and growth factors. Presenescent and senescent cells were incubated with 500 nM corticosterone or 100 nM cortisol (FIG. 12C).

The test system of test [2] is IL-1α/IL-1 receptor (IL-1R) signaling. Briefly: Western blotting of HCA2 lysates for IRAK1, IκBα, RelA. It counts as cell-based, human. Conditions: senescent cells; 500 nM corticosterone or 100 nM cortisol. The procedure:
Cells were lysed in RIPA buffer. Lysates were sonicated (10 sec), followed by centrifugation. Samples were incubated at 70° C. for 10 min, loaded on 4-15% gradient tris-glycine SDS-polyacrylamide gels (Invitrogen) and separated by electrophoresis. Proteins were transferred to PVDF membranes, blocked in TBST 5% milk for 1 hour at room temperature, and probed overnight at 4° C. with primary antibodies in blocking buffer. Membranes were washed in TBST, and incubated with horseradish peroxidase-conjugated secondary antibodies for 1 hour at room temperature. Blots were developed using Western detection substrate (GE Healthcare).
Primary antibodies and dilutions were: anti-GR (SC-8992, Santa Cruz; 1:500), anti-actin (ab6276, Abcam; 1:50000), anti-MCR (SC-11412, Santa Cruz; 1:500), anti-IRAK1 (SC-5288, Santa Cruz; 1:500), anti-IκBα (#9247, Cell Signaling; 1:500), anti-RelA (SC-109, Santa Cruz; 1:500), and anti-53BP1 (A300-272A, Bethyl; 1:500).

For a further test, the system named is NF-κB. Briefly: NF-κB reporter-luciferase transactivation assay. Type of test: cell-based, human. Conditions: senescent cells; 500 nM corticosterone or 100 nM cortisol. The procedure:
Nuclear extracts were prepared using the nuclear extract kit (Active Motif), and NF-κB DNA binding was determined using the TransAM NF-κB p65 kit (Active Motif). For transactivation assays, cells infected with the NF-κB reporter-luciferase lentivirus were lysed in buffer (Promega), and luciferase activity was normalized to cell number, as described (Freund et al., 2011, EMBO J. 30:1536-1548).

A further test concerns IL-6. Briefly: Initial drug screen (Prestwick Chemical Library), IL-6 ELISA of medium. Type of test: cell-based, human. As to conditions: 2.5 μM, 48 hours, HCA2 fibroblasts, 0.2% serum. The procedure: The initial drug screen was performed in a 96-well format using automated liquid handling with a Biomek FX (Beckman Coulter, CA). Senescent cells were plated 24 hours after X-irradiation at 7,500 cells per well in 96-well plates. Six days after plating the senescent cells, the pre-senescent cells were plated at 7,500 cells per well in 96-well plates. Twenty-four hours after pre-senescent plating, both pre-senescent and senescent cells were washed and incubated in low (0.2%) serum for 48 hours to arrest cell proliferation of the pre-senescent cells. […] Forty-eight hours after compound addition, the medium in each well was removed and frozen for assay by ELISA to quantitate the levels of IL-6. The cells, which remained in the wells after the medium was removed, were lysed and ATP levels were measured (ATPlite 1-step assay, Perkin Elmer, MA) to exclude compounds that lowered IL-6 through toxicity (cell death). Experimental wells in each plate were normalized to plate mean or same-plate DMSO controls for the ELISA and ATP assays, respectively.
To identify small molecules that may be potential SASP modulators, a screening strategy that entailed administering compounds to parallel 96-well plates containing human fibroblasts (strain HCA2) that were either quiescent or senescent was developed. […] After 48 hours, the medium from each well was removed, and the cells were lysed. […] Cell lysates were assayed for ATP as a surrogate for cell number.
For orientation: An ELISA detects its analyte on a solid surface through an enzyme-linked reagent.

In test [3] the test system is T47D human breast cancer cells. Briefly: Invasion assay: conditioned media from HCA2 fibroblasts stimulating T47D invasion of basement membrane. Type of test: cell-based. Conditions: HCA2 fibroblasts treated with corticosterone or cortisol for 10 d. On the procedure:
T47D human breast cancer cells (120,000 cells/well) were plated atop a layer of Matrigel in the upper chambers of Transwells (BD Biosciences). The lower chambers contained conditioned media from pre-senescent or senescent HCA2 fibroblasts treated with corticosterone or cortisol for 10 d. After 18 h, cells that migrated to the underside of the upper chamber filter were stained and counted, as described (Coppe et al., 2008, PLoS Biol. 6:2853-2868; Coppe et al., 2010, PLoS ONE 5:e9188).

As for `C[C@]12C[C@H](O)[C@H]3[C@@H](CCC4=CC(=O)CC[C@@]43C)[C@@H]1CC[C@@H]2C(=O)CO` [corticosterone], the mineralocorticoid receptor localization result in test [1] is reported as “remained cytoplasmic”. Moreover, in the test on SASP, the “secretion of growth and angiogenic factors” value was “suppressed the secretion of several growth and angiogenic factors such as VEGF”; the “secretion of pro-inflammatory cytokines and chemokines” value was “strongly suppressed the secretion of several pro-inflammatory cytokines and chemokines, including IL-6, IL-8, GM-CSF and MCP-2”; the “suppression of all components of the SASP” value was “Neither glucocorticoid suppressed all components of the SASP”. For the same molecule, the “IRAK1 and IκBα protein abundance” value in test [2] was “restored IRAK1 and IκBα proteins to near-presenescent levels”. Also, the NF-κB transactivation activity result in the test with NF-κB is recorded as “significantly decreased”. In addition, in the test on IL-6, the “IL-6 secretion (ELISA)” value is given as “suppressed IL-6 secretion”. Besides, the “ability of senescent conditioned media to stimulate T47D invasiveness” value in test [3] is on record as “near-presenescent levels”.
As for `C[C@]12CCC(=O)C=C1CC[C@@H]1[C@@H]2[C@@H](O)C[C@@]2(C)[C@H]1CC[C@]2(O)C(=O)CO` [cortisol], the mineralocorticoid receptor localization result in test [1] was “remained cytoplasmic”. In addition, in the test with SASP, the “secretion of growth and angiogenic factors” value was “suppressed the secretion of several growth and angiogenic factors such as VEGF”; the “secretion of pro-inflammatory cytokines and chemokines” value was “strongly suppressed the secretion of several pro-inflammatory cytokines and chemokines, including IL-6, IL-8, GM-CSF and MCP-2”; the “suppression of all components of the SASP” value is on record as “Neither glucocorticoid suppressed all components of the SASP”. Further, the “IRAK1 and IκBα protein abundance” value in test [2] is “restored IRAK1 and IκBα proteins to near-presenescent levels”. In the test with NF-κB, the NF-κB transactivation activity result is reported as “significantly decreased”. In the test with IL-6, the “IL-6 secretion (ELISA)” value is recorded as “suppressed IL-6 secretion”. Further, the “ability of senescent conditioned media to stimulate T47D invasiveness” value in test [3] was “near-presenescent levels”.
